Reference: patent US12527322B2, “Fungicidal compositions” (SYNGENTA CROP PROTECTION AG, priority 2020, dated 2026)
“And” between values parts separate entries of the source, which are not always exact repeats. Equal values may be shown once. Read-outs that look alike come from different tables or passages of the source. *1 amine or outer side, *2 acyl side, *3 side chain or, on linkers, in order; H or OH if unused. Where a SMILES comes first, the peptide text is derived from it. [ ]: non-standard residue; d: D form. ξ: configuration not given here. ξNMeVal(3-OH) = CNC(C(=O)O)C(C)(C)O; NMeF = CN[CH](Cc1ccccc1)C(=O)O; X1 = CCC(C)C(O[*:1])C(=O)[*:2]; NMeV = CN[CH](C(=O)O)C(C)C

Columns and labels:
Botrytis cinerea = assay: Liquid culture test in well plates: Botrytis cinerea (Gray mould), Example 1-1; format: cell-based
Protocol: (§1) Mycelia fragments or conidia suspensions of a fungus, prepared either freshly from liquid cultures of the fungus or from cryogenic storage, are directly mixed into nutrient broth. DMSO solutions of the test compound (max. 10 mg/mL) is diluted with 0.025% Tween20 by factor 50 and 10 μL of this solution is pipetted into a microtiter plate (96-well format). […] The test plates are incubated in the dark at 24° C. and 96% relative humidity (rh). The inhibition of fungal growth is determined photometrically and visually after 3-7 days, depending on the pathosystem, and percent antifungal activity relative to the untreated check is calculated.
Conidia of the fungus from cryogenic storage were directly mixed into nutrient broth (PDB potato dextrose broth). After placing a DMSO solution of the test compositions into a microtiter plate (96-well format), the nutrient broth containing the fungal spores was added.

Alternaria solani = assay: Liquid culture test in well plates: Alternaria solani (early blight of tomato/potato), Example 1-2; format: cell-based; settings: for inhibition at 0.0012 ppm: component (B) alone at 0.0012 ppm
Protocol: as §1, with “The inhibition of fungal growth is determined photometrically and visually after 3-7 days, depending on the pathosystem, and percent antifungal activity relative to the untreated check is calculated.” left out
Conidia of the fungus from cryogenic storage were directly mixed into nutrient broth (PDB potato dextrose broth). After placing a DMSO solution of the test compositions into a microtiter plate (96-well format) the nutrient broth containing the fungal spores was added.

[1] = component (B) alone at 0.0003 ppm, 72 hours
[2] = Botrytis cinerea, component (B) alone at 0.0006 ppm, 72 hours, read-out: (B) inhibition
[3] = Botrytis cinerea, component (B) alone at 0.0012 ppm, 72 hours, read-out: (B) inhibition
[4] = Botrytis cinerea, component (B) alone at 0.0025 ppm, 72 hours
[5] = Botrytis cinerea, component (B) alone at 0.0050 ppm, 72 hours
[6] = Alternaria solani, component (B) alone at 0.0025 ppm, 48 hours, read-out: (B) inhibition
[7] = Botrytis cinerea, component (B) alone at 0.0003 ppm, 72 hours
[8] = component (B) alone at 0.0006 ppm, 72 hours
[9] = component (B) alone at 0.0050 ppm, 72 hours
[10] = component (B) alone at 0.0050 ppm, 48 hours
[11] = component (B) alone at 0.0012 ppm, 72 hours

CCC(C)C1NC(=O)C2CCCN2C(=O)C(Cc2ccccc2)N(C)C(=O)C(Cc2ccccc2)NC(=O)C(C(C)C)N(C)C(=O)C(C(C)CC)OC(=O)C(C(C)(C)O)N(C)C(=O)C(CC(C)C)NC(=O)C(C(C)C)N(C)C1=O (stereo not shown) [Aureobasidin A] (cyclo([ξNMeVal(3-OH)][X1][NMeV]F[NMeF]PI[NMeV]L); configuration not given here)
(A) inhibition (Botrytis cinerea; Aureobasidin A (A) alone at 0.0003 ppm, 72 hours): 9% and 1%
(A) inhibition (Botrytis cinerea; Aureobasidin A (A) alone at 0.0006 ppm, 72 hours): 6%
(A) inhibition (Botrytis cinerea; Aureobasidin A (A) alone at 0.0200 ppm, 72 hours): 32%
inhibition at 0.0002 ppm (Botrytis cinerea; Botrytis cinerea, 72 h, read-out: (A) inhibition, Aureobasidin A (A) alone at 0.0002 ppm): 5%
inhibition at 0.0006 ppm (Botrytis cinerea; Botrytis cinerea, 72 h, read-out: (A) inhibition, Aureobasidin A (A) alone at 0.0006 ppm): 9%
inhibition at 0.0012 ppm (Botrytis cinerea; Botrytis cinerea, 72 h, read-out: (A) inhibition, Aureobasidin A (A) alone at 0.0012 ppm): 9%
inhibition at 0.0001 ppm (Alternaria solani; Alternaria solani, 48 h, read-out: (A) inhibition, Aureobasidin A (A) alone at 0.0001 ppm): 9%
inhibition at 0.0025 ppm (Alternaria solani; Alternaria solani, 48 h, read-out: (A) inhibition, Aureobasidin A (A) alone at 0.0025 ppm): 20%
inhibition at 0.005 ppm (Alternaria solani; Alternaria solani, 48 h, read-out: (A) inhibition, Aureobasidin A (A) alone at 0.0050 ppm): 5%
inhibition at 0.01 ppm (Alternaria solani; Alternaria solani, 48 h, read-out: (A) inhibition, Aureobasidin A (A) alone at 0.0100 ppm): 17%
inhibition at 0.04 ppm (Alternaria solani; Alternaria solani, 48 h, read-out: (A) inhibition, Aureobasidin A (A) alone at 0.0400 ppm): 36%
(A) inhibition (Alternaria solani; Aureobasidin A (A) alone at 0.0050 ppm, 48 hours): 3%
(A) inhibition (Alternaria solani; Aureobasidin A (A) alone at 0.0100 ppm, 48 hours): 14%

CC1(C)N=C(c2cnc3ccccc3c2)c2ccccc2C1(F)F [B-1, quinofumelin]
(B) inhibition (Botrytis cinerea; [1]): 27%
(B) inhibition (Botrytis cinerea; component (B) alone at 0.0005 ppm, 72 hours): 37%

Cc1ccc2c(C3=NC(C)(C)C(F)(F)c4c(F)cccc43)cnn2c1C [B-5, 1-(6,7-dimethylpyrazolo[1,5-a]pyridin-3-yl)-4,4,5-trifluoro-3,3-dimethyl-isoquinoline]
inhibition at 0.0006 ppm (Botrytis cinerea; [2]): 17%
inhibition at 0.0012 ppm (Botrytis cinerea; [3]): 40%
inhibition at 0.0025 ppm (Botrytis cinerea; [4]): 57%
inhibition at 0.005 ppm (Botrytis cinerea; [5]): 75%
inhibition at 0.0012 ppm (Alternaria solani; Alternaria solani, 48 hours): 30%
inhibition at 0.0025 ppm (Alternaria solani; [6]): 56%

Cc1ccc2c(C3=NC(C)(C)C(F)(F)c4cc(F)ccc43)cnn2c1C [B-6, 1-(6,7-dimethylpyrazolo[1,5-a]pyridin-3-yl)-4,4,6-trifluoro-3,3-dimethyl-isoquinoline]
inhibition at 0.0006 ppm (Botrytis cinerea; [2]): 25%
inhibition at 0.0012 ppm (Botrytis cinerea; [3]): 34%
inhibition at 0.0025 ppm (Botrytis cinerea; [4]): 68%
inhibition at 0.005 ppm (Botrytis cinerea; [5]): 84%
inhibition at 0.0006 ppm (Alternaria solani; Alternaria solani, component (B) alone at 0.0006 ppm, 48 hours): 22%
inhibition at 0.0012 ppm (Alternaria solani; Alternaria solani, 48 hours): 39%
inhibition at 0.0025 ppm (Alternaria solani; [6]): 59%

Cc1cccc2c(C3=NC(C)(C)C(F)(F)c4ccccc43)cnn12 [B-7, 4,4-difluoro-3,3-dimethyl-1-(7-methylpyrazolo[1,5-a]pyridin-3-yl)isoquinoline]
inhibition at 0.0006 ppm (Botrytis cinerea; [2]): 18%
inhibition at 0.0012 ppm (Botrytis cinerea; [3]): 40%
inhibition at 0.01 ppm (Alternaria solani; Alternaria solani, component (B) alone at 0.0100 ppm, 48 hours, read-out: (B) inhibition): 63%

Cc1ccc2c(ncn2C2=NC(C)(C)C(F)(F)c3c(F)cccc32)c1C [B-8, 1-(4,5-dimethylbenzimidazol-1-yl)-4,4,5-trifluoro-3,3-dimethyl-isoquinoline]
inhibition at 0.0003 ppm (Botrytis cinerea; [7]): 22%
inhibition at 0.0006 ppm (Botrytis cinerea; [2]): 40%
inhibition at 0.0012 ppm (Botrytis cinerea; [3]): 50%
inhibition at 0.0012 ppm (Alternaria solani; Alternaria solani, 48 hours): 38%

Cc1ccc2c(ncn2C2=NC(C)(C)C(F)(F)c3ccccc32)c1C [B-9, 1-(4,5-dimethylbenzimidazol-1-yl)-4,4-difluoro-3,3-dimethyl-isoquinoline]
inhibition at 0.0003 ppm (Botrytis cinerea; [7]): 9%
inhibition at 0.0006 ppm (Botrytis cinerea; [2]): 28%
inhibition at 0.0012 ppm (Botrytis cinerea; [3]): 45%
inhibition at 0.0012 ppm (Alternaria solani; Alternaria solani, 48 hours): 24%

Cc1cccc2c1ncn2C1=NC(C)(C)C(F)(F)c2cc(Cl)ccc21 [B-10, 6-chloro-4,4-difluoro-3,3-dimethyl-1-(4-methylbenzimidazol-1-yl)isoquinoline]
inhibition at 0.0006 ppm (Botrytis cinerea; [2]): 21%
inhibition at 0.0012 ppm (Botrytis cinerea; [3]): 39%
inhibition at 0.0025 ppm (Botrytis cinerea; [4]): 49%

N-[(1R)-1-benzyl-1,3-dimethyl-butyl]-8-fluoro-quinoline-3-carboxamide/N-[(1S)-1-benzyl-1,3-dimethyl-butyl]-8-fluoro-quinoline-3-carboxamide [B-2]
(B) inhibition (Botrytis cinerea; [1]): 2%
(B) inhibition (Botrytis cinerea; [8]): 35%
(B) inhibition (Botrytis cinerea; [9]): 70%
(B) inhibition (Alternaria solani; component (B) alone at 0.0025 ppm, 48 hours): 0%
(B) inhibition (Alternaria solani; [10]): 10%
(B) inhibition (Alternaria solani; component (B) alone at 0.0100 ppm, 48 hours): 52%

N-[(1R)-1-benzyl-3,3,3-trifluoro-1-methyl-propyl]-8-fluoro-quinoline-3-carboxamide/N-[(1S)-1-benzyl-3,3,3-trifluoro-1-methyl-propyl]-8-fluoro-quinoline-3-carboxamide [B-3]
(B) inhibition (Botrytis cinerea; [8]): 10%
(B) inhibition (Botrytis cinerea; [11]): 32%
(B) inhibition (Botrytis cinerea; [9]): 52%

N-[(1R)-1-benzyl-3-chloro-1-methyl-but-3-enyl]-8-fluoro-quinoline-3-carboxamide/N-[(1S)-1-benzyl-3-chloro-1-methyl-but-3-enyl]-8-fluoro-quinoline-3-carboxamide [B-4]
(B) inhibition (Botrytis cinerea; [8]): 33%
(B) inhibition (Botrytis cinerea; [11]): 46%
(B) inhibition (Botrytis cinerea; component (B) alone at 0.0025 ppm, 72 hours): 60%
(B) inhibition (Alternaria solani; [10]): 32%
